PMC8406801, “Naringenin Inhibits Platelet Activation and Arterial Thrombosis Through Inhibition of Phosphoinositide 3-Kinase and Cyclic Nucleotide Signaling” (Frontiers in Pharmacology, 2021)
“And” between values parts separate entries of the source, which are not always exact repeats. Identical values can stand only once.

Tests used:
[1] = tested on: washed platelets on fibrinogen-coated coverslips; test: Platelet spreading on fibrinogen; type: cell-based, rat; conditions: for surface coverage, platelet spreading on fibrinogen: mean ± SD, n = 3, vehicle 30.37 ± 3.31%; for Area (%) of platelets spread on fibrinogen: single replicates
Description: Washed platelets were incubated with vehicle or various concentrations of naringenin at 37°C for 10 min in the presence of 2 mM CaCl2 and allowed to spread on fibrinogen-coated coverslips for 45 min at 37°C ([Liu et al., 2016]). After washed three times with phosphate-buffered saline (PBS), adherent platelets were fixed with 4% paraformaldehyde, permeabilized with 0.1% Triton X-100 and stained with TRITC-conjugated phalloidin (1 μg/ml) in the dark at room temperature for 60 min. Adherent platelets were observed under an inverted fluorescence microscope (Nikon TE-2000S) and processed using Image J software.

PRP = test: Clot retraction; type: cell-based, rat; conditions: PRP, 200, 400, and 800 μM, thrombin 1 U/mL, 15 min
Description: PRP was incubated with vehicle or different concentrations of naringenin for 10 min at 37°C. Clot retraction was initiated by adding fibrinogen (400 μg/ml) and thrombin (1 U/mL), and allowed to proceed at 37°C. Images were taken 15 min later.

ERK1/2 phosphorylation = test: Immunoblotting of phospho-ERK1/2 (Thr202/Tyr204) in ADP-stimulated washed platelets; type: cell-based, rat; conditions: ADP 10 μmol/L, single replicates; for p-ERK1/2 / t-ERK: raw data
Description: (§1) For in vitro platelet aggregation, aliquots of washed platelets were preincubated with vehicle or various concentrations of naringenin for 5 min and stimulated with ADP (10 μmol/L) under stirring at 37°C for 5 min. For ex vivo platelet aggregation, PRP was incubated at 37°C for 5 min and stimulated with ADP (5 μmol/L) under stirring at 37 °C. The platelet aggregation was terminated by adding ethylenediaminetetraacetic acid (EDTA; 10 mM). Total protein was prepared using RIPA lysis buffer and protein content was determined by bicinchoninic acid (BCA) protein assay kit. Equal amounts of platelet proteins (30 μg) were separated on 10% SDS polyacrylamide gel electrophoresis (SDS-PAGE) and then transferred to poly vinylidene difluoride (PVDF) membranes and subjected to western blot. Blots were blocked with TBS-Tween 20 containing 5% BSA and probed with primary antibodies diluted in blocking solution at 4°C overnight followed by incubation with the corresponding HRP secondary antibodies. The protein bands were visualized using enhanced chemiluminescence (ECL).
FIGURE 4 Naringenin inhibits PI3K-mediated signaling in ADP-induced platelets. Washed rat platelets were preincubated without or with naringenin at 37°C for 5 min, and then stimulated with ADP (10 μmol/L) under stirring for 5 min. Platelet proteins were then extracted and analyzed by immunoblotting using PI3Kp110β antibody (A) and phospho-specific antibodies such as Akt^Ser473 (B), Akt^Thr308 (C), ERK1/2^Thr202/Tyr204 (D) and GSK3β^Ser9 (E). Total level of GAPDH was measured on each sample as a loading control. The blots shown are representative of three separate experiments. The relative protein expression levels were quantified by ImageJ 1.47v software. The level of relative protein expression obtained with vehicle control (0 μM) was taken as 1. R represents the level of relative protein expression in resting platelets. Data are expressed as means ± SD (n = 3). *p < 0.05, **p < 0.01, ***p < 0.001 compared with the vehicle control group.

PI3Kp110β = test: Ex vivo immunoblotting of PI3Kp110β in ADP-stimulated PRP of treated rats; design: species or system rat; conditions: for PI3Kp110β / GAPDH (Fold to Control) / PI3Kp110β / GAPDH (raw data): ex vivo, Figure 8B
Description: (§2) Male SD rats were randomly divided into 5 groups with 6 rats in each group. […] Sixty minutes after the last sample treatment, blood was drawn from the abdominal aorta of rats into the siliconized vacutainers containing 1:9 (v/v) 3.8% sodium citrate. The collected blood was centrifuged at 100 × g for 10 min at room temperature to obtain PRP. […] The platelet counts of PRP were adjusted to 4×10^8 cells/mL using PPP. PRP was incubated for 5 min at 37°C and then stimulated by ADP (5 μM). The maximum platelet aggregation rate was determined as mentioned above.
as §1
(§3) Blood was collected and PRP was obtained after the last treatment. Platelet aggregation was induced by ADP (5 μmol/L) (A). Data are expressed as means ± SD (n = 6). After ADP stimulation, platelet proteins were then extracted and analyzed by immunoblotting using PI3Kp110β antibody (B) and phospho-specific antibodies such as Akt^Ser473 (C), Akt^Thr308 (D) and ERK1/2^Thr202/Tyr204 (E). Total level of GAPDH was measured on each sample as a loading control. The blots shown are representative of three separate experiments. The relative protein expression levels were quantified by ImageJ 1.47v software. The level of relative protein expression obtained with vehicle control was taken as 1. R represents the level of relative protein expression in resting platelets. Data are expressed as means ± SD (n = 3). *p < 0.05, **p < 0.01, ***p < 0.001 compared with the vehicle control group (Con).
(§4) To further investigate the antiplatelet mechanisms of naringenin ex vivo, several signaling molecules such as PI3Kp110β, Akt and ERK were detected. After oral administration of naringenin (200, 400, and 800 mg/kg) to rats for 7 days, rat PRP was prepared and stimulated by ADP (5 μmol/L), and platelets were lysed to determine protein phosphorylation levels using western blot.

[2] = tested on: Akt Ser473 phosphorylation; test: Ex vivo immunoblotting of phospho-Akt (Ser473) in ADP-stimulated PRP of treated rats; design: species or system rat; conditions: for p-Akt Ser473 / t-Akt (Fold to Control) / p-Akt Ser473 / t-Akt (raw data): ex vivo, Figure 8C
Description: as §2, §1, §3, §4

[3] = rats, oral 200, 400, and 800 mg/kg for 7 days, ADP 5 μmol/L

## O=C1C[C@@H](c2ccc(O)cc2)Oc2cc(O)cc(O)c21 [Naringenin]
[1]; 100 μM
  surface coverage, platelet spreading on fibrinogen: 20.96 ± 5.08%
  Area (%) of platelets spread on fibrinogen: 25.76% and 15.64% and 21.47%
[1]; 200 μM
  surface coverage, platelet spreading on fibrinogen: 15.29 ± 1.87%
  Area (%) of platelets spread on fibrinogen: 16.88% and 15.75% and 13.23%
[1]; 400 μM
  surface coverage, platelet spreading on fibrinogen: 10.56 ± 0.79%
  Area (%) of platelets spread on fibrinogen: 9.69% and 11.23% and 10.75%
[1]; 800 μM
  surface coverage, platelet spreading on fibrinogen: 6.98 ± 2.74%
  Area (%) of platelets spread on fibrinogen: 4.62% and 6.33% and 9.98%
PRP
  clot retraction: significantly reduced
ERK1/2 phosphorylation; 100 μM
  p-ERK1/2 / t-ERK: 0.3358 and 0.4551 and 0.3494
  p-ERK1/2 / t-ERK (Fold to ADP only): 0.4798 Fold to ADP only and 0.6502 Fold to ADP only and 0.4991 Fold to ADP only
ERK1/2 phosphorylation; 200 μM
  p-ERK1/2 / t-ERK: 0.2390 and 0.3446 and 0.2653
  p-ERK1/2 / t-ERK (Fold to ADP only): 0.3414 Fold to ADP only and 0.4923 Fold to ADP only and 0.3790 Fold to ADP only
ERK1/2 phosphorylation; 400 μM
  p-ERK1/2 / t-ERK: 0.0291 and 0.2751 and 0.1193
  p-ERK1/2 / t-ERK (Fold to ADP only): 0.0416 Fold to ADP only and 0.3930 Fold to ADP only and 0.1704 Fold to ADP only
ERK1/2 phosphorylation; 800 μM
  p-ERK1/2 / t-ERK: 0.0106 and 0.1491 and 0.1406
  p-ERK1/2 / t-ERK (Fold to ADP only): 0.0152 Fold to ADP only and 0.2129 Fold to ADP only and 0.2008 Fold to ADP only
PI3Kp110β; naringenin 200mg/kg
  PI3Kp110β / GAPDH (Fold to Control): 0.9111 and 0.9256 and 1.0697
  PI3Kp110β / GAPDH (raw data): 0.4465 and 0.4536 and 0.5241
PI3Kp110β; naringenin 400mg/kg
  PI3Kp110β / GAPDH (Fold to Control): 0.7818 and 0.8725 and 1.0518
  PI3Kp110β / GAPDH (raw data): 0.3831 and 0.4275 and 0.5154
PI3Kp110β; naringenin 800mg/kg
  PI3Kp110β / GAPDH (Fold to Control): 0.6930 and 0.8263 and 0.7645
  PI3Kp110β / GAPDH (raw data): 0.3396 and 0.4049 and 0.3746
PI3Kp110β; [3]
  expression of PI3Kp110β in rat PRP ex vivo: only modest changes
[2]; naringenin 200mg/kg
  p-Akt Ser473 / t-Akt (Fold to Control): 0.3581 and 0.2265 and 0.3338
  p-Akt Ser473 / t-Akt (raw data): 0.3980 and 0.2517 and 0.3710
[2]; naringenin 400mg/kg
  p-Akt Ser473 / t-Akt (Fold to Control): 0.1353 and 0.0873 and 0.1300
  p-Akt Ser473 / t-Akt (raw data): 0.1504 and 0.0970 and 0.1445
[2]; naringenin 800mg/kg
  p-Akt Ser473 / t-Akt (Fold to Control): 0.1415 and 0.0868 and 0.1240
  p-Akt Ser473 / t-Akt (raw data): 0.1573 and 0.0965 and 0.1378
[2]; [3]
  phosphorylation of Akt at Ser473 in rat PRP ex vivo: significantly suppressed
